Source: US20100234377A1 (priority 2007, published 2010)
Where two headings read alike, the source gives them in different places.

Columns and labels:
[1] = biological target: T1, human Prostaglandin D Synthase (GST2) (Homo sapiens, UniProt O60760); test: Homogeneous biochemical assay of human Prostaglandin D Synthase (GST2) based on its glutathion-S-transferase activity (GSH conjugation to monochlorobimane, fluorescence)
T1 construct: the open reading frame of human Prostaglandin D Synthase was amplified from cDNA; made in house; host or cells: E. coli TOP10F'
Summary of the method: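 N-His-tagged human PGD synthase from E. coli, assayed via its GST activity: GSH conjugation to monochlorobimane in 50 mM MES/KOH pH 6.1, 0.7 mM GSH, 2 mM MgCl2. Compounds at final picomolar to triple-digit micromolar concentrations.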

K+ATP channel = K+ATP channel (Rattus norvegicus, UniProt Q09429); test: KATP channel receptor binding assay ([3H]glibenclamide); settings: [3H]glibenclamide 0.1 nM, rat cerebral cortex; for inhibition at 10 µM: Table 1, 10 μM compound concentration, read-out: K^+ATP Channel (% Inhibition of Control Specific Binding); for K+ATP Channel (% Inhibition of Control Specific Binding): Table 3
Description: KATP Channel Mediated Binding Assay
The compounds of Comparative Examples I to XII and Compounds 59, 30, 22, 76 and 69 were tested for their effects in an in vitro receptor binding KATP channel assay.
(§1) The specific ligand binding to the receptor is defined as the difference between the total binding and the non-specific binding determined in the presence of an excess of unlabelled ligand. The results are expressed as a percent inhibition of control specific binding obtained in the presence of the test compounds.
(§2) In each experiment, the respective reference compound was tested concurrently with the test compounds in order to assess the assay suitability. It was tested at several concentrations (for IC50 value determination), and the data were compared with historical values.

PPARγ (h) = biological target: T2, PPARγ (h) (Homo sapiens, UniProt P37231); test: PPARγ receptor binding assay ([3H]rosiglitazone); settings: Table 3; [3H]rosiglitazone 10 nM, human recombinant
T2 construct: host or cells: E. coli
T2 sequence (P37231 1-505): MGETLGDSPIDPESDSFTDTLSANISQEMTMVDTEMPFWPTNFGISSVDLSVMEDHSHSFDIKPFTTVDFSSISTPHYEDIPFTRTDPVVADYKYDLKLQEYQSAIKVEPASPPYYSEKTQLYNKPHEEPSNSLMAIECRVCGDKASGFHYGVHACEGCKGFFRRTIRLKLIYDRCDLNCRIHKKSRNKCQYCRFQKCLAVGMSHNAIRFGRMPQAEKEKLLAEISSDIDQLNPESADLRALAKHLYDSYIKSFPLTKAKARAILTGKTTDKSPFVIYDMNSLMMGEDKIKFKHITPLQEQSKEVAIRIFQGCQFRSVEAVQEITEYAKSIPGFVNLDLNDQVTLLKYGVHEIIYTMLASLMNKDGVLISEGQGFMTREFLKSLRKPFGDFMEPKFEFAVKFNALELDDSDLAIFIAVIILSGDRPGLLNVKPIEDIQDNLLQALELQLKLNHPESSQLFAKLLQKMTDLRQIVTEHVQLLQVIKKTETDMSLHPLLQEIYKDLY
Description: Selected GST2 Inhibitors Screened Against PPARγ and KATP Channel Modulator Assays
Selected GST2 inhibitors of General Formula (I) were screened in a PPARγ assay to determine their modulator effects.
as §1, §2

[2] = Mouse microsomal metabolism assay; assay type: in vitro ADME; settings: liver microsomes; mouse hepatic microsomes, 37° C., phosphate buffer pH 7.4, NADPH regenerating system; read-out: Mouse t½
Description: Selected GST2 Inhibitors from Formula I Assessed in Mouse Microsomal Metabolism Assay
Selected GST2 inhibitors of General Formula (I) were screened in a mouse hepatic microsome assay to determine microsomal metabolism.
Test Articles were prepared in 50% acetonitrile.
Mouse hepatic microsomes supplied by BD GenTest Inc or an equivalent reputable supplier.
Test Articles are added to incubation plates containing phosphate buffer pH 7.4 and microsomes at a suitable protein concentration. Incubation plates are placed on a shaking water bath at 37° C. for 5 minutes pre-incubation. An aliquot of the reaction mixture is taken and added to acetonitrile (3:1). This is designated time […]. NADPH regenerating system in phosphate buffer pH 7.4 is added to initiate reactions. Aliquots from the incubation wells are taken at a number of time points and added to acetonitrile. Control incubations contained no microsomes or compounds with known microsomal stabilities. Samples were subject to centrifugation to remove denatured protein and the supernatants were analysed by LCMS.
Half lives were calculated from the log vs time transformed data according to the following equation: […]
Where λ is the slope of the linear regression line under first order (Test Article concentration <Km) conditions.

[3] = Table 1, read-out: GST2 IC50 Range
[4] = Table 3, read-out: GST2 IC50 range
[5] = given beside the compound name in Examples 1 to 167, read-out: Potency Range (GST2 IC50)

T1 sequence (O60760 whole entry): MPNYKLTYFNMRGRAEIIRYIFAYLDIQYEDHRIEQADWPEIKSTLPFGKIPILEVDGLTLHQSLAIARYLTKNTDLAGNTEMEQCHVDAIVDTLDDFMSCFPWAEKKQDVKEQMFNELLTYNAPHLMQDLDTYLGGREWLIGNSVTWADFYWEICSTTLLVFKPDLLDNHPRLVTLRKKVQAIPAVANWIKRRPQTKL
Sequence of K+ATP channel (Q09429 whole entry): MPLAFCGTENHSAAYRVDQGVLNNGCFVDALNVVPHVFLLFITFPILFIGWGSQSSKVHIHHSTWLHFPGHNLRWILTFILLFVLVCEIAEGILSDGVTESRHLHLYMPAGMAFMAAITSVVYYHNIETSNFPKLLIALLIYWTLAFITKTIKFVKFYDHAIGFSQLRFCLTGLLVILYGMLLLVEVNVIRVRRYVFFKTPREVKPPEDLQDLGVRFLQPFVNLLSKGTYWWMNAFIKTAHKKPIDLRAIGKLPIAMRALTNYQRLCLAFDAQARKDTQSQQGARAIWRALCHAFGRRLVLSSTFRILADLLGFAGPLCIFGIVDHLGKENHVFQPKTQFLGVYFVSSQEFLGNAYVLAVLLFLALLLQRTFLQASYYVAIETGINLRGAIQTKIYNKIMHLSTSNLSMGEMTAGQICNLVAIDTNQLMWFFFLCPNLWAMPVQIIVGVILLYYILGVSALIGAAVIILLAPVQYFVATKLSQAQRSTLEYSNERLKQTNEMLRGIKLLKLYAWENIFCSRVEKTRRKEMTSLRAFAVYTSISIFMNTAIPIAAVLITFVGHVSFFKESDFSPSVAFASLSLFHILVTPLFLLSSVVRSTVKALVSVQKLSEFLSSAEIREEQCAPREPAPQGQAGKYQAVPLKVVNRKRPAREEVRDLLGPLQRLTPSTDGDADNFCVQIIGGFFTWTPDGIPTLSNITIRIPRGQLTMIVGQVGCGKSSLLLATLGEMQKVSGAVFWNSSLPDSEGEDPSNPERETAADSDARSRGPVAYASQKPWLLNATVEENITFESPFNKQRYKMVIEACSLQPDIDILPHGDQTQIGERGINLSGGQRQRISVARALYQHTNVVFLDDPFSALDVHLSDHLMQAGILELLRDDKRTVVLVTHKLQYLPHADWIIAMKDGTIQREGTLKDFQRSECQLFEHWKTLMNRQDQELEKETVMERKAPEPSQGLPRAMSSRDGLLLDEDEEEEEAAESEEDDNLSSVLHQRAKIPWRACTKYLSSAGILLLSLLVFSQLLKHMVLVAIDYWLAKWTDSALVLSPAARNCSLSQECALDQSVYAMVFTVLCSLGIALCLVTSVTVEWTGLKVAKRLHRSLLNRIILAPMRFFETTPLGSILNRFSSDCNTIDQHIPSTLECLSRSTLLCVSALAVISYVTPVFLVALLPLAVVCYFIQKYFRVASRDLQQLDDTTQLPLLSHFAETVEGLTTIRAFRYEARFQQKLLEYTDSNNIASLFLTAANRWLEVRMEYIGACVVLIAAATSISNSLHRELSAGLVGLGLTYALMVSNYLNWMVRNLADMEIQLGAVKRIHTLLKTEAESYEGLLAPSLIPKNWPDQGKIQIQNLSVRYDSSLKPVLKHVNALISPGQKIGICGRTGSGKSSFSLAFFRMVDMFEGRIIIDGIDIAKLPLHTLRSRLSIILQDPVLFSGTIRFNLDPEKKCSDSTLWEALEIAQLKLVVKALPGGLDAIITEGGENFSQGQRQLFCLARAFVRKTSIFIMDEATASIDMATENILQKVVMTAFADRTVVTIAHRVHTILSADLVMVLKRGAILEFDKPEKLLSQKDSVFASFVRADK
Sequence of K+ATP channel (P70673 whole entry partner): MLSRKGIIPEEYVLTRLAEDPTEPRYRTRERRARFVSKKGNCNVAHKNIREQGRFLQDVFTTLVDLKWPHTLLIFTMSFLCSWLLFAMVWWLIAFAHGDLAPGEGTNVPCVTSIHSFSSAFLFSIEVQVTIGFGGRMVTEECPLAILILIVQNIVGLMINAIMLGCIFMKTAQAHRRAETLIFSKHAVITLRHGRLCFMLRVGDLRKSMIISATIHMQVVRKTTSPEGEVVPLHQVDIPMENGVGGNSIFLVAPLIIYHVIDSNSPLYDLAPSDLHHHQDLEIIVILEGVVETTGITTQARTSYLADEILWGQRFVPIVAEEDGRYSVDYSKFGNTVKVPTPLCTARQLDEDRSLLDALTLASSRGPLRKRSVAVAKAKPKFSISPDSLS

IC50 [1, 3] | inhibition at 10 µM (K+ATP channel) | IC50 [1, 4] | IC50 [1, 5] | K+ATP Channel (% Inhibition of Control Specific Binding) (K+ATP channel) | PPARγ (% Inhibition of Control Specific Binding) (PPARγ (h)) | half-life [2] | SMILES
101 to 1000 nM | -1% |  |  |  |  |  | O=C(Nc1cc(C(F)(F)F)cc(C(F)(F)F)c1)N1CCN(C(=O)c2ccco2)CC1 [Compound I, 4-(Furan-2-carbonyl)-piperazine-1-carboxylic acid (3,5-bis-trifluoromethyl-phenyl)-amide, reference compound]
101 to 1000 nM | -3% |  |  |  |  |  | O=C(Nc1cc(C(F)(F)F)ccc1Cl)N1CCN(C(=O)c2ccccc2)CC1 [Compound VIII, 4-Benzoyl-piperazine-1-carboxylic acid (2-chloro-5-trifluoromethyl-phenyl)-amide, reference compound]
101 to 1000 nM | -17% |  |  |  |  |  | O=C(Nc1cc(Cl)cc(Cl)c1)N1CCN(C(=O)c2ccco2)CC1 [Compound II, 4-(Furan-2-carbonyl)-piperazine-1-carboxylic acid (3,5-dichloro-phenyl)-amide, reference compound]
11 to 100 nM | 16% | 11 to 100 nM | 11 to 100 nM | 13% | 16% |  | Cc1nc(-c2cccc(NC(=O)N3CCN(C(=O)c4cccc(F)c4)CC3)c2)no1 [Compound 30, 4-(3-Fluoro-benzoyl)-piperazine-1-carboxylic acid [3-(5-methyl-[1,2,4]oxadiazol-3-yl)-phenyl]-amide]
11 to 100 nM | -12% |  |  |  |  |  | O=C(c1ccccc1)N1CCN(C(=S)Nc2cc(C(F)(F)F)ccc2Cl)CC1 [Compound XI, 4-Benzoyl-piperazine-1-carbothioic acid (2-chloro-5-trifluoromethyl-phenyl)-amide, reference compound]
101 to 1000 nM | 10% |  |  |  |  |  | O=C(c1ccccc1)N1CCN(C(=S)Nc2cc(C(F)(F)F)cc(C(F)(F)F)c2)CC1 [Compound IX, 4-Benzoyl-piperazine-1-carbothioic acid (3,5-bis-trifluoromethyl-phenyl)-amide, reference compound]
11 to 100 nM | -22% | 11 to 100 nM | 11 to 100 nM | −13% | −22% |  | O=C(Nc1nc(-c2ccccc2)cs1)N1CCN(C(=O)c2cccc(F)c2)CC1 [Compound 69, 4-(3-Fluoro-benzoyl)-piperazine-1-carboxylic acid (4-phenyl-thiazol-2-yl)-amide]
 | 4% |  |  |  |  |  | O=C(c1ccco1)N1CCN(C(=S)Nc2cc(C(F)(F)F)cc(C(F)(F)F)c2)CC1 [Compound VI, 4-(Furan-2-carbonyl)-piperazine-1-carbothioic acid (3,5-bis-trifluoromethyl-phenyl)-amide]
101 to 1000 nM | -10% |  |  |  |  |  | O=C(c1ccccc1)N1CCN(C(=S)Nc2cc(Cl)cc(Cl)c2)CC1 [Compound X, 4-Benzoyl-piperazine-1-carbothioic acid (3,5-dichloro-phenyl)-amide, reference compound]
11 to 100 nM | -10% |  |  |  |  |  | O=C(Nc1cc(Cl)cc(Cl)c1)N1CCN(C(=O)c2ccccc2)CC1 [Compound VII, 4-Benzoyl-piperazine-1-carboxylic acid (3,5-dichloro-phenyl)-amide, reference compound]
 |  |  | 101 to 1000 nM |  |  | > 1 h | O=C(Nc1ccc(C(=O)N2CCOCC2)cc1)N1CCN(C(=O)c2cccc(F)c2)CC1 [Compound 101, 4-(3-Fluoro-benzoyl)-piperazine-1-carboxylic acid [4-(morpholine-4-carbonyl)-phenyl]-amide]
 |  |  | 11 to 100 nM |  |  | > 1 h | O=C(Nc1ccc(N2CCOCC2)nc1)N1CCN(C(=O)c2cccc(F)c2)CC1 [Compound 154, 4-(3-Fluoro-benzoyl)-piperazine-1-carboxylic acid (6-morpholin-4-yl-pyridin-3-yl)-amide]
 |  |  | 101 to 1000 nM |  |  | > 1 h | O=C(Nc1nc2cc(Cl)ccc2o1)N1CCN(C(=O)c2cccc(F)c2)CC1 [Compound 39, 4-(3-Fluoro-benzoyl)-piperazine-1-carboxylic acid (5-chloro-benzooxazol-2-yl)-amide]
101 to 1000 nM | -20% |  |  |  |  |  | O=C(c1ccco1)N1CCN(C(=S)Nc2cc(C(F)(F)F)ccc2Cl)CC1 [Compound V, 4-(Furan-2-carbonyl)-piperazine-1-carbothioic acid (2-chloro-5-trifluoromethyl-phenyl)-amide, reference compound]
101 to 1000 nM | -7% |  |  |  |  |  | O=C(c1ccco1)N1CCN(C(=S)Nc2cc(Cl)cc(Cl)c2)CC1 [Compound IV, 4-(Furan-2-carbonyl)-piperazine-1-carbothioic acid (3,5-dichloro-phenyl)-amide, reference compound]
 |  |  | 101 to 1000 nM |  |  | > 1 h | CS(=O)(=O)Nc1ccc(NC(=O)N2CCN(C(=O)c3cccc(F)c3)CC2)cc1 [Compound 126, 4-(3-Fluoro-benzoyl)-piperazine-1-carboxylic acid (4-methanesulfonylamino-phenyl)-amide]
 |  |  | 101 to 1000 nM |  |  | 0.978 h | CN1CCN(c2ccc(NC(=O)N3CCN(C(=O)c4cccc(F)c4)CC3)cc2F)CC1 [Compound 60, 4-(3-Fluoro-benzoyl)-piperazine-1-carboxylic acid [3-fluoro-4-(4-methyl-piperazin-1-yl)-phenyl]-amide]
11 to 100 nM | 15% | 11 to 100 nM | 11 to 100 nM | 12% | 15% |  | O=C(Nc1ccc(N2CCN(C(=O)OC3CCOC3)CC2)c(F)c1)N1CCN(C(=O)c2cccc(F)c2)CC1 (racemic) [Compound 59, 4-(2-Fluoro-4-{[4-(3-fluoro-benzoyl)-piperazine-1-carbonyl]-amino}-phenyl)-piperazine-1-carboxylic acid tetrahydro-furan-3-yl ester]
11 to 100 nM | 20% | 11 to 100 nM | 101 to 1000 nM | −2% | 20% |  | Cn1cnnc1-c1cccc(NC(=O)N2CCN(C(=O)c3cccc(F)c3)CC2)c1 [Compound 76, 4-(3-Fluoro-benzoyl)-piperazine-1-carboxylic acid [3-(4-methyl-4H-[1,2,4]triazol-3-yl)-phenyl]-amide]
11 to 100 nM | -14% |  |  |  |  |  | O=C(c1ccccc1)N1CCN(C(=S)Nc2ccc(C(F)(F)F)cc2)CC1 [Compound XII, 4-Benzoyl-piperazine-1-carbothioic acid (4-trifluoromethyl-phenyl)-amide, reference compound]
101 to 1000 nM | -8% |  |  |  |  |  | O=C(Nc1cc(C(F)(F)F)ccc1Cl)N1CCN(C(=O)c2ccco2)CC1 [Compound III, 4-(Furan-2-carbonyl)-piperazine-1-carboxylic acid (2-chloro-5-trifluoromethyl-phenyl)-amide, reference compound]
